Literature values, collected in patent publication US8772510B2, “PDE10 modulators” (Hoffmann-La Roche Inc., priority 2011, dated 2014).

Target: PDE10A (Rattus norvegicus (Rat), UniProt Q9QYJ6)
Details: rats, sub-chronic treatment with PCP; Rodefer et al. 2005

Chain of PDE10A (Q9QYJ6 whole entry): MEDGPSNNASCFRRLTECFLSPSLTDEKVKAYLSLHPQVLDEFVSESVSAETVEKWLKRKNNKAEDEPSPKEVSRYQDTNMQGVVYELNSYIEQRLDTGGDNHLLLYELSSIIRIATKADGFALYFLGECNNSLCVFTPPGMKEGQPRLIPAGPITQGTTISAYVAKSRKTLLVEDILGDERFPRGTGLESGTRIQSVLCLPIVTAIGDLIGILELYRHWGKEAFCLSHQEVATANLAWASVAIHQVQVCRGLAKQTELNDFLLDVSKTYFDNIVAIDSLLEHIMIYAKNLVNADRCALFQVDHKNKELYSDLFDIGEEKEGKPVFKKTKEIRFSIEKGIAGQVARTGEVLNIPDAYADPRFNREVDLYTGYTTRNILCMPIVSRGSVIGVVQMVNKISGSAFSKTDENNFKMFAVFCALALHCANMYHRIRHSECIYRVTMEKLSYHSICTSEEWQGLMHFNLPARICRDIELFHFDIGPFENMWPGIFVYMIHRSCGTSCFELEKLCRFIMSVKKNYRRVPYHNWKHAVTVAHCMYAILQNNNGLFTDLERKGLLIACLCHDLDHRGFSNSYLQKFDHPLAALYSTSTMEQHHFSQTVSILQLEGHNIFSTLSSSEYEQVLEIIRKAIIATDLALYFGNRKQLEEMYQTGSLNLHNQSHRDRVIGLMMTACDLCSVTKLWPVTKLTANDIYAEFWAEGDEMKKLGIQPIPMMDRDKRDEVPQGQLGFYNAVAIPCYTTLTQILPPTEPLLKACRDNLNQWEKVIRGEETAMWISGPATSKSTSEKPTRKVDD

COc1ccc(Cc2nccc3cc(OC)c(OC)cc23)cc1OC [papaverine, Papaverine]
deficits in extra-dimensional shift learning: attenuate the deficits in the extra-dimensional shift learning
